13 molecules from US8680111B2 (Pfizer Inc., priority 2012, dated 2014) can be followed below.

What is called Ki is the dissociation constant of the complex between target and ligand, obtained from inhibition or displacement. As a reminder, the IC50 is the concentration that gives 50% inhibition.

Molecules are shown by their SMILES. Read-outs that look alike come from different tables or passages of the source.

For data set [1], the target named is T1, human recombinant L1196M ALK kinase domain (amino acids 1093-1411) (Homo sapiens, UniProt Q9UM73, L1196M).
T1 construct: ALK kinase domain (amino acids 1093-1411); made in house
Kind of data set: L1196M mutant ALK enzyme assay (microfluidic mobility shift). To be noted: ATP 60 μM, 0.5 nM enzyme, competitive inhibition fit; read-out: L1196M ALK enzyme assay (Ki). The data set is classed as biochemical.

In data set [2] the target is T2, human recombinant wild-type ALK kinase domain (amino acids 1093-1411) (Homo sapiens, UniProt Q9UM73).
T2 construct: ALK kinase domain (amino acids 1093-1411); made in house
The experiment in a line: Wild-type ALK enzyme assay (microfluidic mobility shift). The format is biochemical. To be noted: ATP 60 μM, competitive inhibition fit, read-out: WT ALK enzyme assay (Ki).
Description: The reactions were incubated for 1 h at room temperature, stopped by the addition of 0.1 M EDTA, pH 8, and the extent of reactions (˜15-20% conversion with no inhibitor) was determined after electrophoretic separation of the fluorescently labeled peptide substrate and phosphorylated product on an LabChip EZ Reader II (Caliper Life Sciences, Hopkinton, Mass.).

Data set [3] addresses T3, WT EML4-ALK (NIH-3T3 EML4-ALK wt v1 cells) (Homo sapiens, UniProt Q9UM73).
T3 construct: expressed in transfected cells; the other entry of the earlier key: EML4 (Q9HC35, Echinoderm microtubule-associated protein-like 4)
Kind of data set: Cellular phospho-ALK (Tyr1604) ELISA assay for WT EML4-ALK. To be noted: 1 hour, read-out: ELISA assay for WT EML4-ALK (IC50). The data set is classed as cell-based. A general note: In an ELISA, binding on a coated surface is turned into a signal by an enzyme label.

The conditions of data set [4]: 12-membered ring.
In data set [5] the target is T4, L1196M EML4-ALK (NIH-3T3 EML4-ALK v1 L1196M cells) (Homo sapiens, UniProt Q9UM73, L1196M).
T4 construct: expressed in transfected cells; the other entry of the earlier key: EML4 (Q9HC35, Echinoderm microtubule-associated protein-like 4)
Kind of data set: Cellular phospho-ALK (Tyr1604) ELISA assay for L1196M EML4-ALK. The following applies: NIH-3T3 EML4-ALK v1 L1196M cells, 1 hour, phospho-ALK (Tyr1604); read-out: ELISA assay for L1196M EML4-ALK (IC50). The format is cell-based.
Description: Cellular Phospho-ALK (Tyr1604) ELISA Assay for EML4-ALK:
The cells were maintained at 37° C. in a 5% CO2 incubator in DMEM (Invitrogen, Carlsbad, Calif.) medium supplemented with 1% L-glutamine, 1% penicillin and streptomycin, 1 ug/ml puromycin and 10% new born calf serum (NCS) in T-75 flasks.
Cells were washed with PBS and re-suspended in DMEM medium supplemented with 0.5% NCS and 1% pen/strep and seeded into 96-well plates at density of 20,000 cells/well/100 μl and incubated in the incubator at 37° C. and 5% CO2. After 20 hours of incubation, 100 μl of assay media (DMEM) in presence of designated PF-compounds concentrations or controls (DMSO) were added into plates and incubated for 1 hour in the incubator. Media was then removed and lysis buffer, containing phosphatase inhibitors and phenylmethanesulfonyl fluoride (PMSF), was added to wells and shaken at 4° C. for 30 minutes to generate protein lysates.
A phospho-ALK (Tyr1604) rabbit antibody was coated onto the 96-well microplates. 50 μl of cell lysates were added to the antibody coated plate and incubated at room temperature for 2 hours. Following extensive washing with 0.1% Tween 20 in PBS to remove unbound materials, ALK mouse mAb was added to detect captured phospho-ALK (Tyr1604) and phospho-ALK fusion proteins. Anti-mouse IgG, HRP-linked antibody was then used to recognize the bound detection antibody. Finally, the chemiluminescent reagent was added and incubated for 10 minutes for signal development. The assay plates were read in the Envision plate reader in the luminescent mode. IC50 values were calculated by a concentration-response curve fitting using a four-parameter analytic method.

For data set [6] the following is noted: cc_pd bond.
For data set [7] the following is noted: cc_pd bond, 12-membered ring, Pd(OAc)2/cataCXium A/KOAc, 120.0 °C.
For data set [8] the following is noted: cc_pd bond, 12-membered ring, Pd(OAc)2/cataCXium A/KOAc, t-AmOH, 120.0 °C.

As to `C[C@H]1Oc2nc(cnc2N)-c2c(C(N)=O)noc2CN(C)C(=O)c2ccc(F)cc21` [Example 72, (10R)-7-amino-12-fluoro-10,16-dimethyl-15-oxo-10,15,16,17-tetrahydro-8,4-(azeno)[1,2]oxazolo[4,5-h][2,5,11]benzoxadiazacyclotetradecine-3-carboxamide], the figures for the Ki in data set [1] and in data set [2] were 28 nM and 5.1 nM, respectively. Besides, the half-inhibitory concentration (IC50) in data set [3] was 347 nM; in data set [5], 4270 nM. Moreover, in data set [4] (cc_pd bond, Pd(OAc)2/cataCXium A/KOAc/PivOH, DMA, […], 120.0 °C), the ring closure, yield after HPLC worked out at 12%.

Take `C[C@H]1Oc2nc(cnc2N)-c2c(nn(C)c2C#N)CN(C)C(=O)c2c(F)cc(F)cc21` [Example 101, (10R)-7-amino-12,14-difluoro-2,10,16-trimethyl-15-oxo-10,15,16,17-tetrahydro-2H-8,4-(azeno)pyrazolo[4,3-h][2,5,11]benzoxadiazacyclotetradecine-3-carbonitrile]: the values for the Ki in data set [1] and in data set [2] were 0.41 nM and 0.12 nM, respectively. In addition, in data set [6] (from C[C@@H](Oc1nc(Br)cnc1N)c1cc(F)cc(F)c1C(=O)N(C)Cc1cc(C#N)n(C)n1, Pd(OAc)2/cataCXium A/KOAc, tert-amyl alcohol, 50.0 mM, 120.0 °C, 2.0 h), the ring closure, yield of all isomers came out at 53%. For the same molecule, the IC50 stood at 0.92 nM in data set [3] and 8.77 nM in data set [5]. Also, the ring closure, isolated yield in data set [7] (t-amyl alcohol, 50.0 mM) amounted to 53%.

Take `C[C@H]1Oc2cc(cnc2N)-c2c(n[nH]c2C#N)CN(C)C(=O)c2ccc(F)cc21` [Example 88, (10R)-7-amino-12-fluoro-10,16-dimethyl-15-oxo-10,15,16,17-tetrahydro-2H-8,4-(metheno)pyrazolo[4,3-h][2,5,11]benzoxadiazacyclotetradecine-3-carbonitrile]: the Ki in data set [1] was 0.39 nM; in data set [2] it was 0.2 nM. Moreover, the IC50 in data set [3] was 15.5 nM; in data set [5] it was 191 nM. The same molecule came in with a ring closure, yield after HPLC in data set [4] (amide bond, HATU/DIEA, DMF, 8.3 mM, 0.0 °C) of 12%.

Regarding `C[C@H]1Oc2nc(cnc2N)-c2c(noc2C#N)CN(C)C(=O)c2ccc(F)cc21` [Example 99, (10R)-7-amino-12-fluoro-10,16-dimethyl-15-oxo-10,15,16,17-tetrahydro-8,4-(azeno)[1,2]oxazolo[4,3-h][2,5,11]benzoxadiazacyclotetradecine-3-carbonitrile], the results for the Ki in data set [1] and in data set [2] were 11.7 nM and 3.2 nM, respectively. In data set [8] (21.0 mM), the ring closure, conversion is 30%. For the same molecule, the IC50 in data set [3] was 52.4 nM; in data set [5], 531 nM. Further, the ring closure, yield after HPLC in data set [4] (cc_pd bond, Pd(OAc)2/cataCXium A/KOAc, t-AmOH, 21.0 mM, 120.0 °C) came to 9%.

The molecule `C[C@H]1Oc2nc(cnc2N)-c2c(nc3ccc(C#N)cn23)CN(C)C(=O)c2ccc(F)cc21` showed a ring closure, yield after HPLC in data set [4] (cc_pd bond, cataCXium/t-AmOH/KOAc, DMAc, 11.9 mM, 110.0 °C) of 12%.

In data set [6] (from Cc1nn(C)c(CN(C)C(=O)c2ccc(F)cc2C(C)Oc2nc(Br)cnc2N)c1Br, Pd(OAc)2 / di(1-adamantyl)-n-butylphosphine, bis(pinacolato)diboron, CsF, MeOH, 42.4 mM, 100.0 °C, 8.5 h, 2 steps), `Cc1nn(C)c2c1-c1cnc(N)c(n1)OC(C)c1cc(F)ccc1C(=O)N(C)C2` (stereo not shown) showed a ring closure, yield of all isomers of 6%.

For `CCc1noc2c1-c1cnc(N)c(c1)O[C@H](C)c1cc(F)ccc1C(=O)N(C)C2` [Example 81, (10R)-7-amino-3-ethyl-12-fluoro-10,16-dimethyl-16,17-dihydro-8,4-(metheno)[1,2]oxazolo[4,5-h][2,5,11]benzoxadiazacyclotetradecin-15(10H)-one], the figures for the Ki in data set [1] and in data set [2] were 3.9 nM and below 1.88 nM, respectively. Besides, the IC50 in data set [3] stood at 2.25 nM; in data set [5] it was 52 nM. The ring closure, yield after HPLC in data set [4] (cc_pd bond, Pd(OAc)2/cataCXium A/KOAc/PivOH, DMA, 50.0 mM, […]) worked out at 6%.

Turning to `C[C@H]1Oc2cc(cnc2N)-c2c(noc2C#N)CN(C)C(=O)c2ccc(F)cc21` [Example 100, (10R)-7-amino-12-fluoro-10,16-dimethyl-15-oxo-10,15,16,17-tetrahydro-8,4-(metheno)[1,2]oxazolo[4,3-h][2,5,11]benzoxadiazacyclotetradecine-3-carbonitrile], the inhibitory constant (Ki) in data set [1] was 24.2 nM; in data set [2], 3.1 nM. Moreover, the ring closure, conversion in data set [8] (17.9 mM) is 30%. Moreover, the results for the IC50 in data set [3] and in data set [5] were 146 nM and 1480 nM, respectively. Further, in data set [7] (t-AmOH, 17.9 mM), the ring closure, isolated yield was determined as 15%.

Turning to `C[C@H]1Oc2nc(cnc2N)-c2c(nn(C)c2C#N)CN(C)C(=O)c2ccccc21` [Example 70, (10R)-7-amino-2,10,16-trimethyl-15-oxo-10,15,16,17-tetrahydro-2H-8,4-(azeno)pyrazolo[4,3-h][2,5,11]benzoxadiazacyclotetradecine-3-carbonitrile], the inhibitory constant (Ki) was 0.96 nM in data set [1] and below 0.16 nM in data set [2]. In data set [6] (from C[C@@H](Oc1nc(Br)cnc1N)c1ccccc1C(=O)N(C)Cc1cc(C#N)n(C)n1, Pd(OAc)2/cataCXium A, KOAc, tert-amyl alcohol, 48.7 mM, 120.0 °C, 3.0 h), this molecule registered a ring closure, yield of all isomers of 32%. The 50% inhibitory concentration (IC50) in data set [3] came to 6.52 nM; in data set [5] it was 78.5 nM. The molecule further displayed a ring closure, yield after HPLC in data set [4] (from C[C@@H](Oc1nc(Br)cnc1N)c1ccccc1C(=O)N(C)Cc1cc(C#N)n(C)n1, cc_pd bond, Pd(OAc)2/cataCXium A/KOAc, t-amyl alcohol, 48.7 mM, 120.0 °C) of 32%.

Take `COc1nccc2c1-c1cnc(N)c(c1)OC(C)c1cc(F)ccc1C(=O)N(C)C2` (stereo not shown) [Example 45, 8-amino-13-fluoro-4-methoxy-11,17-dimethyl-17,18-dihydro-9,5-(metheno)pyrido[3,4-h][2,5,11]benzoxadiazacyclotetradecin-16(11H)-one]: the inhibitory constant (Ki) is 500 nM in data set [1] and above 3000 nM in data set [2]. Also, the ring closure, yield after HPLC in data set [4] (amide bond, CMPI/DIEA, DMA, 10.0 mM, 0.0 °C) was determined as 4%.

Consider `Cc1cnc2nc3c(n2c1)-c1cnc(N)c(n1)O[C@H](C)c1cc(F)ccc1C(=O)N(C)C3`, for which the ring closure, yield of all isomers in data set [6] (from Cc1cnc2nc(CN(C)C(=O)c3ccc(F)cc3[C@@H](C)Oc3nc(Br)cnc3N)cn2c1, Pd(OAc)2/cataCXium A, KOAc, tert-amyl alcohol, 30.0 mM, 120.0 °C, 2.0 h) came out at 50%.

With `C[C@H]1Oc2cc(cnc2N)-c2c(nn(C)c2C#N)CN(C)C(=O)c2ccccc21` [Example 71, (10R)-7-amino-2,10,16-trimethyl-15-oxo-10,15,16,17-tetrahydro-2H-8,4-(metheno)pyrazolo[4,3-h][2,5,11]benzoxadiazacyclotetradecine-3-carbonitrile], the values for the Ki in data set [1] and in data set [2] were 3.73 nM and below 0.249 nM, respectively. The IC50 in data set [3] turned out to be 10.2 nM; in data set [5] it was 169 nM. This molecule also yielded a ring closure, yield after HPLC in data set [4] (cc_pd bond, B2pin2/Pd(OAc)2/cataCXium A/CsF, MeOH/H2O, 12.7 mM, 100.0 °C) of 13%.

As to `C[C@H]1Oc2nc(cnc2N)-c2c(C#N)noc2CN(C)C(=O)c2ccc(F)cc21` [Example 73, (10R)-7-amino-12-fluoro-10,16-dimethyl-15-oxo-10,15,16,17-tetrahydro-8,4-(azeno)[1,2]oxazolo[4,5-h][2,5,11]benzoxadiazacyclotetradecine-3-carbonitrile], the figures for the Ki in data set [1] and in data set [2] were 2.4 nM and 0.33 nM, respectively. Moreover, the results for the IC50 in data set [3] and in data set [5] were 12.8 nM and 169 nM, respectively. The ring closure, yield after HPLC in data set [4] (cc_pd bond, Pd(OAc)2/cataCXium A/KOAc/PivOH, DMA, 49.9 mM, 120.0 °C) was 21%.
